Structures can show the parent of a compound that is named as a salt.
Each compound was assayed against T1, HDAC6 (Homo sapiens, UniProt Q9UBN7) (assay: HDAC assay (fluorogenic substrate), HDAC6).
T1 sequence (Q9UBN7 1-1215): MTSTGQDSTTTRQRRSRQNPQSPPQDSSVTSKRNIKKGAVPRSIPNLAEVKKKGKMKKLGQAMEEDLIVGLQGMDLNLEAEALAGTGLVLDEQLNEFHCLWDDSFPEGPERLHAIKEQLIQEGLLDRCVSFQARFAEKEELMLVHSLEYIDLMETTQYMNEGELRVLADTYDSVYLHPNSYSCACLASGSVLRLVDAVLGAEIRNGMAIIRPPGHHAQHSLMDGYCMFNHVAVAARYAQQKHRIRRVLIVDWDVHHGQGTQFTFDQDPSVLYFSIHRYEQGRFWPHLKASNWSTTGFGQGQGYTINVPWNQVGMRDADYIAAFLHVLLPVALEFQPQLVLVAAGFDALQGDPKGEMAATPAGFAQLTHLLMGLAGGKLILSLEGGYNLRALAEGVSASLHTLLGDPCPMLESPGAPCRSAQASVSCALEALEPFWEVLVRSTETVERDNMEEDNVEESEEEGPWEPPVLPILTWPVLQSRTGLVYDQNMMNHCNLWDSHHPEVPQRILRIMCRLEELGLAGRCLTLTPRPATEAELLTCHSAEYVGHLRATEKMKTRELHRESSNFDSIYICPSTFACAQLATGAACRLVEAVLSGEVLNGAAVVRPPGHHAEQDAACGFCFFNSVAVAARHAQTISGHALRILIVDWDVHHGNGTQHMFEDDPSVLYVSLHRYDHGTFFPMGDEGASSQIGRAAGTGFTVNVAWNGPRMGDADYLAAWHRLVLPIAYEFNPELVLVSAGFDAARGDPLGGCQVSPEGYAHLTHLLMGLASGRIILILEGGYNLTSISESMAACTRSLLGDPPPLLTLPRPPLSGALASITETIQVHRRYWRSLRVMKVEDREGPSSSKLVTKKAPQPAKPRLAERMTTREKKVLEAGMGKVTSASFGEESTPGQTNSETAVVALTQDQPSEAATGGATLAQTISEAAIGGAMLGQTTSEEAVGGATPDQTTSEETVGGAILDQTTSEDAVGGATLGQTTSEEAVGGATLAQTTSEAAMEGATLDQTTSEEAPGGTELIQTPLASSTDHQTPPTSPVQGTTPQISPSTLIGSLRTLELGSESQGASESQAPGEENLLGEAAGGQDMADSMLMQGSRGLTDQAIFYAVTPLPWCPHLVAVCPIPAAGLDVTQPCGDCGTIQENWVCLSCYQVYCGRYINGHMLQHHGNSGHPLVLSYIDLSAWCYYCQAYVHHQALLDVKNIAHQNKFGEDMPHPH
Format: biochemical
Method: Base Reaction buffer: 50 mM Tris-HCl, pH8.0, 137 mM NaCl, 2.7 mM KCl, and 1 mM MgCl2. Add fresh: 1 mg/ml BSA, 1% DMSO
Fluorogenic HDAC General Substrate: 50 μM, Arg-His-Lys-Lys(Ac)
• 1. Deliver 2× enzyme in wells of reaction plate except No Enzyme control wells. Add buffer in No En wells. • 2. Deliver compounds in 100% DMSO into the enzyme mixture by Acoustic technology (Echo550; nanoliter range). Spin down and pre-incubation. • 3. Deliver 2× Substrate Mixture (Fluorogenic HDAC Substrate and co-factor if applicable) in all reaction wells to initiate the reaction. Spin and shake. • 4. Incubate for 30 min for Class 2A, 1 hr for HDAC1, 2, 3, and 6, and 2 hr for the rest of HDACs and SIRTs at 30° C. with seal. Development Step: • 5. Add Developer with Trichostatin A (or Nicotinamide for SIRTs) to stop the reaction and to generate fluorescent color. • 6. Kinetic measurement for 1.5 hr with Envision with 15 min interval. (Ex/Em=360/460 nm) • 7. Take endpoint reading for analysis after the development reaches plateau.
With `CNC(=O)n1cnc2c(-c3ccccc3)cc(Nc3ncc(-c4nnc(C(F)F)o4)cn3)cc21` [Example 28, 6-((5-(5-(difluoromethyl)-1,3,4-oxadiazol-2-yl)pyrimidin-2-yl)amino)-N-methyl-4-phenyl-1H-benzo[d]imidazole-1-carboxamide] the inhibition at 10 µM was over 90%.
Compound `CN(c1cc(-c2ccccc2)c2nc[nH]c2c1)c1ncc(-c2nnc(C(F)F)o2)cn1` [Example 7, N-(5-(5-(difluoromethyl)-1,3,4-oxadiazol-2-yl)pyrimidin-2-yl)-N-methyl-4-phenyl-1H-benzo[d]imidazol-6-amine] has an inhibition at 10 µM of over 40%.
Compound `FC(F)c1nnc(-c2cnc(Nc3cc(-c4cccnc4)c4nc[nH]c4c3)nc2)o1` [Example 3, N-(5-(5-(difluoromethyl)-1,3,4-oxadiazol-2-yl)pyrimidin-2-yl)-4-(pyridin-3-yl)-1H-benzo[d]imidazol-6-amine hydrochloride] has an inhibition at 10 µM of over 80%.
Work on `O=S(=O)(NCC1CC1)c1cc(Nc2ncc(-c3nnc(C(F)F)o3)cn2)cc2c1ncn2CCO` [Example 26, N-(cyclopropylmethyl)-6-((5-(5-(difluoromethyl)-1,3,4-oxadiazol-2-yl)pyrimidin-2-yl)amino)-1-(2-hydroxyethyl)-1H-benzo[d]imidazole-4-sulfonamide] yielded an inhibition at 10 µM of over 90%.
`Cc1nc2c(-c3ccccc3)cc(Nc3ncc(-c4nnc(C(F)F)o4)cn3)cc2[nH]1` [Example 5, N-(5-(5-(difluoromethyl)-1,3,4-oxadiazol-2-yl)pyrimidin-2-yl)-2-methyl-4-phenyl-1H-benzo[d]imidazol-6-amine] was tested, and the inhibition at 10 µM was over 90%.
With `C=CCn1cnc2c(-c3ccccc3)cc(Nc3ncc(-c4nnc(C(F)F)o4)cn3)cc21` [Example 12, 1-allyl-N-(5-(5-(difluoromethyl)-1,3,4-oxadiazol-2-yl)pyrimidin-2-yl)-4-phenyl-1H-benzo[d]imidazol-6-amine] the inhibition at 10 µM was over 90%.
With `Cn1cnc2c(-c3ccccc3)cc(Nc3ncc(-c4nnc(C(F)F)o4)cn3)cc21` [Example 4, N-(5-(5-(difluoromethyl)-1,3,4-oxadiazol-2-yl)pyrimidin-2-yl)-1-methyl-4-phenyl-1H-benzo[d]imidazol-6-amine] the inhibition at 10 µM was over 70%.
`OCCn1cnc2c(-c3cn[nH]c3)cc(Nc3ncc(-c4nnc(C(F)F)o4)cn3)cc21` [Example 46, 2-(6-((5-(5-(difluoromethyl)-1,3,4-oxadiazol-2-yl)pyrimidin-2-yl)amino)-4-(1H-pyrazol-4-yl)-1H-benzo[d]imidazol-1-yl)ethan-1-ol] showed an inhibition at 10 µM of over 90%.
Work on `OCCn1cnc2c(-c3ccn[nH]3)cc(Nc3ncc(-c4nnc(C(F)F)o4)cn3)cc21` [Example 37, 2-(6-((5-(5-(difluoromethyl)-1,3,4-oxadiazol-2-yl)pyrimidin-2-yl)amino)-4-(1H-pyrazol-5-yl)-1H-benzo[d]imidazol-1-yl)ethan-1-ol] yielded an inhibition at 10 µM of over 90%.
For `Cc1nc2c(-c3ccccc3)cc(Nc3ncc(-c4nnc(C(F)F)o4)cn3)cc2n1CCO` [Example 30, 2-(6-((5-(5-(difluoromethyl)-1,3,4-oxadiazol-2-yl)pyrimidin-2-yl)amino)-2-methyl-4-phenyl-1H-benzo[d]imidazol-1-yl)ethan-1-ol], the inhibition at 10 µM was over 90%.
In the case of `Fc1c(Nc2ncc(-c3nnc(C(F)F)o3)cn2)cc2[nH]cnc2c1-c1ccccc1` [Example 38, N-(5-(5-(difluoromethyl)-1,3,4-oxadiazol-2-yl)pyrimidin-2-yl)-5-fluoro-4-phenyl-1H-benzo[d]imidazol-6-amine], the inhibition at 10 µM is reported as over 90%.
For `FC(F)c1nnc(-c2cnc(Nc3cc(-c4ccccc4)c4ncn(CC(F)(F)F)c4c3)nc2)o1` [Example 48, N-(5-(5-(difluoromethyl)-1,3,4-oxadiazol-2-yl)pyrimidin-2-yl)-4-phenyl-1-(2,2,2-trifluoroethyl)-1H-benzo[d]imidazol-6-amine], the inhibition at 10 µM was over 90%.
`CC(CO)n1cnc2c(-c3ccccc3)cc(Nc3ncc(-c4nnc(C(F)F)o4)cn3)cc21` (stereo not drawn) [Example 29, 2-(6-((5-(5-(difluoromethyl)-1,3,4-oxadiazol-2-yl)pyrimidin-2-yl)amino)-4-phenyl-1H-benzo[d]imidazol-1-yl)propan-1-ol] gave an inhibition at 10 µM of over 90%.
In the case of `C#CCn1cnc2c(-c3ccccc3)cc(Nc3ncc(-c4nnc(C(F)F)o4)cn3)cc21` [Example 47], the inhibition at 10 µM is reported as over 90%.
Work on `FC(F)c1nnc(-c2cnc(Nc3cc(-c4ccc(CN5CCOCC5)cc4)c4nc[nH]c4c3)nc2)o1` [Example 18, N-(5-(5-(difluoromethyl)-1,3,4-oxadiazol-2-yl)pyrimidin-2-yl)-4-(4-(morpholinomethyl)phenyl)-1H-benzo[d]imidazol-6-amine] yielded an inhibition at 10 µM of over 90%.
Compound `Fc1c(Nc2ncc(-c3nnc(C(F)F)o3)cn2)cc(-c2ccccc2)c2nc[nH]c12` [Example 39, N-(5-(5-(difluoromethyl)-1,3,4-oxadiazol-2-yl)pyrimidin-2-yl)-7-fluoro-4-phenyl-1H-benzo[d]imidazol-6-amine] has an inhibition at 10 µM of over 90%.
`CN(C)C(=O)Cn1cnc2c(-c3ccccc3)cc(Nc3ncc(-c4nnc(C(F)F)o4)cn3)cc21` [Example 25, 2-(6-((5-(5-(difluoromethyl)-1,3,4-oxadiazol-2-yl)pyrimidin-2-yl)amino)-4-phenyl-1H-benzo[d]imidazol-1-yl)-N,N-dimethylacetamide] showed an inhibition at 10 µM of over 90%.
Work on `OCCn1cnc2c(-c3ccc(F)cc3F)cc(Nc3ncc(-c4nnc(C(F)F)o4)cn3)cc21` [Example 32, 2-(6-((5-(5-(difluoromethyl)-1,3,4-oxadiazol-2-yl)pyrimidin-2-yl)amino)-4-(2,4-difluorophenyl)-1H-benzo[d]imidazol-1-yl)ethan-1-ol] yielded an inhibition at 10 µM of over 90%.
Work on `FC(F)c1nnc(-c2cnc(Nc3ccc4nc[nH]c4c3)nc2)o1` [Example 19, N-(5-(5-(difluoromethyl)-1,3,4-oxadiazol-2-yl)pyrimidin-2-yl)-1H-benzo[d]imidazol-6-amine] yielded an inhibition at 10 µM of over 90%.
With `FC(F)c1nnc(-c2cnc(Nc3cc(-c4cn[nH]c4)c4nc[nH]c4c3)nc2)o1` [Example 44, N-(5-(5-(difluoromethyl)-1,3,4-oxadiazol-2-yl)pyrimidin-2-yl)-4-(1H-pyrazol-4-yl)-1H-benzo[d]imidazol-6-amine] the inhibition at 10 µM was over 90%.
For `OCCn1cnc2c(-c3ccccn3)cc(Nc3ncc(-c4nnc(C(F)F)o4)cn3)cc21` [Example 21, 2-(6-((5-(5-(difluoromethyl)-1,3,4-oxadiazol-2-yl)pyrimidin-2-yl)amino)-4-(pyridin-2-yl)-1H-benzo[d]imidazol-1-yl)ethan-1-ol], the inhibition at 10 µM was over 90%.
`FC(F)c1nnc(-c2cnc(Nc3cc(-c4ccn[nH]4)c4nc[nH]c4c3)nc2)o1` [Example 36, N-(5-(5-(difluoromethyl)-1,3,4-oxadiazol-2-yl)pyrimidin-2-yl)-4-(1H-pyrazol-5-yl)-1H-benzo[d]imidazol-6-amine] was tested, and the inhibition at 10 µM was over 90%.
`FC(F)c1nnc(-c2cnc(Nc3cc(-c4ccccn4)c4nc[nH]c4c3)nc2)o1` [Example 10, N-(5-(5-(difluoromethyl)-1,3,4-oxadiazol-2-yl)pyrimidin-2-yl)-4-(pyridin-2-yl)-1H-benzo[d]imidazol-6-amine] showed an inhibition at 10 µM of over 90%.
With `Fc1cnc(-c2cc(Nc3ncc(-c4nnc(C(F)F)o4)cn3)cc3[nH]cnc23)c(F)c1` [Example 22, N-(5-(5-(difluoromethyl)-1,3,4-oxadiazol-2-yl)pyrimidin-2-yl)-4-(3,5-difluoropyridin-2-yl)-1H-benzo[d]imidazol-6-amine] the inhibition at 10 µM was over 90%.

From patent US11339150B2, “Benzimidazole compounds as HDAC6 inhibitors” (OnKure, Inc., priority 2019, dated 2022)
